Data from article PMC8706783 (Pharmaceutics, 2021).
Like-named read-outs stand apart in the source and are kept apart here.

Columns and labels:
[1] = target: T1, CYP1B1 (Homo sapiens, UniProt Q16678); assay: Enzyme inhibition assay, CYP1B1; type: in vitro ADME; details: Recombinant CYP1B1; 7-ethoxyresorufin O-deethylation
T1 construct: purchased Corning Inc

[2] = target: T2, UGT1A1 (Homo sapiens, UniProt P22309); assay: Enzyme inhibition assay, UGT1A1; type: in vitro ADME; details: for IC50: HLM, UGT1A1 SN38 glucuronidation
T2 construct: from tissue
T2 sequence (P22309 26-533): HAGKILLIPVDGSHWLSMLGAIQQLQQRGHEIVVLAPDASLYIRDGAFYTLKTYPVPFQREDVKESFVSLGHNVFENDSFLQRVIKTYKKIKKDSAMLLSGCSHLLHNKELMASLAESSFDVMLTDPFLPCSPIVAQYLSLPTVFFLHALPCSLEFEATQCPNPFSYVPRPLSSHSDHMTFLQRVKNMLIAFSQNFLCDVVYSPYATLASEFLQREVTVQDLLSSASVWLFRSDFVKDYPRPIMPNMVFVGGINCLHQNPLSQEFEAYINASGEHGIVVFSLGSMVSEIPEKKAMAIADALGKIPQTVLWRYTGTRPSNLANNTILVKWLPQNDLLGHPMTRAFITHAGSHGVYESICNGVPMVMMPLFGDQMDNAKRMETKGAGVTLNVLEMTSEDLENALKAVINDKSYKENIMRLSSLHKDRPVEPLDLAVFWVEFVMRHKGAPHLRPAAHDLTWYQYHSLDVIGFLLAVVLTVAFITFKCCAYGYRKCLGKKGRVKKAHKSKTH

[3] = women, cited from earlier work; for Cmax: plasma, ref IPM 028
[4] = target: T3, UGT1A9 (Homo sapiens, UniProt O60656); assay: Enzyme inhibition assay, UGT1A9; type: in vitro ADME; set-up: from tissue; details: HLM; UGT1A9 mycophenolic acid glucuronidation
T3 sequence (O60656 26-530): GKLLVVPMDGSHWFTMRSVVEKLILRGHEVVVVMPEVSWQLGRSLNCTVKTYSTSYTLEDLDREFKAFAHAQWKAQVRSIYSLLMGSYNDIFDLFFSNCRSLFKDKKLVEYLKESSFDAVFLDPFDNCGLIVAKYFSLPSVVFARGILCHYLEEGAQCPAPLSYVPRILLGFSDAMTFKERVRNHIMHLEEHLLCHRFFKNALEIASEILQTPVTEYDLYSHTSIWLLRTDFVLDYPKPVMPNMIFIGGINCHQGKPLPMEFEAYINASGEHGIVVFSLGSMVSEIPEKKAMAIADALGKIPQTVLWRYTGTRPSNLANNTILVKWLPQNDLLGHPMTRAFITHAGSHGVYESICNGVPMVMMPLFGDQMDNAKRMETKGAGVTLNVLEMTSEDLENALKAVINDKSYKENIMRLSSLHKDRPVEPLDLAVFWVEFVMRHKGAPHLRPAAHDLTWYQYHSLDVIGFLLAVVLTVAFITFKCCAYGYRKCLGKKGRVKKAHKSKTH

[5] = target: T4, UGT1A7 (Homo sapiens, UniProt Q9HAW7); assay: Enzyme inhibition assay, UGT1A7
T4 sequence (Q9HAW7 26-530): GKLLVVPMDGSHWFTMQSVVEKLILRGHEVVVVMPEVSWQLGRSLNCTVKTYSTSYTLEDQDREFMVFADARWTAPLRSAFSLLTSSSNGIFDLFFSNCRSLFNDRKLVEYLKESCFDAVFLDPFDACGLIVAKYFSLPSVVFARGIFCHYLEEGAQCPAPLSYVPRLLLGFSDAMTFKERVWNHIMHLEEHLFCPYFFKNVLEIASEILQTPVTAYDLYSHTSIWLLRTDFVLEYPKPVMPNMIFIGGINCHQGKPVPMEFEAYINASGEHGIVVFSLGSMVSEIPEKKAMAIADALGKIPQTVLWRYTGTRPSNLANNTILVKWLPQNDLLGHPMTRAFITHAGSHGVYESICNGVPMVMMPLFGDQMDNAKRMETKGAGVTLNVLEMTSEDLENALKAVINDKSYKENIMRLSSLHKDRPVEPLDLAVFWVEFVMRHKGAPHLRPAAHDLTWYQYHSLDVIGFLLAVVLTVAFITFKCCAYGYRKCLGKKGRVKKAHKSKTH

[6] = target: T5, UGT1A8 (Homo sapiens, UniProt Q9HAW9); assay: Enzyme inhibition assay, UGT1A8
T5 sequence (Q9HAW9 26-530): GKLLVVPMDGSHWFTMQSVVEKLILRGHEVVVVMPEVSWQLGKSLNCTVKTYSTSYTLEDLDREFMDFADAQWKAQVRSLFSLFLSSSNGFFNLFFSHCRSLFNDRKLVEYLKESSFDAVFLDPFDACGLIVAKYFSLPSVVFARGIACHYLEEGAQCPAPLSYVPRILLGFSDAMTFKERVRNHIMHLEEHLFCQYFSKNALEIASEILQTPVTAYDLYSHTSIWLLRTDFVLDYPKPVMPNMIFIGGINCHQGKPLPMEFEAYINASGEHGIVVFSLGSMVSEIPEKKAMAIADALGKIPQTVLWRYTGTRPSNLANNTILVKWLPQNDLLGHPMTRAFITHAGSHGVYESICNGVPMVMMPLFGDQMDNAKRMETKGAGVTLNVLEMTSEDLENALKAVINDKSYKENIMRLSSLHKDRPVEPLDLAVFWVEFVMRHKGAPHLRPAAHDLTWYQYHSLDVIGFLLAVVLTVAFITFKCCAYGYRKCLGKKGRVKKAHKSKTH

[7] = target: T6, CYP2C8 (Homo sapiens, UniProt P10632); assay: Enzyme inhibition assay, CYP2C8; type: in vitro ADME
T6 construct: tissue Xenotech LLC; host or cells: human liver microsomes, mixed-gender 50 donor pool

[8] = target: T7, UGT2B7 (Homo sapiens, UniProt P16662); assay: Enzyme inhibition assay, UGT2B7; type: in vitro ADME; set-up: from tissue; details: HLM; UGT2B7 zidovudine glucuronidation
T7 sequence (P16662 24-529): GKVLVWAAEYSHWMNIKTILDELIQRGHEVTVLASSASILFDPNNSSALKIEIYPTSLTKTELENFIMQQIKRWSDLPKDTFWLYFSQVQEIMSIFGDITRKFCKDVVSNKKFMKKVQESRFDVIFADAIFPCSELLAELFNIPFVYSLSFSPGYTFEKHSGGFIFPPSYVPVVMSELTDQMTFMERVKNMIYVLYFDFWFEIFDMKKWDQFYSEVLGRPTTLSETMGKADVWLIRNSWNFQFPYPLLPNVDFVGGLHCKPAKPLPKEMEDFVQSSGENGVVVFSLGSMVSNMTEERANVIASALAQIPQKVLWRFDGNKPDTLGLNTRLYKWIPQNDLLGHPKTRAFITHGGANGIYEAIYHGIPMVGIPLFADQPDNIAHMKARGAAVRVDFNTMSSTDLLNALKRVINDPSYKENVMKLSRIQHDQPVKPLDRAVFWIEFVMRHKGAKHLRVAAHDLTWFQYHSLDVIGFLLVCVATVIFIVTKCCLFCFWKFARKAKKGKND

T1 sequence (Q16678 whole entry): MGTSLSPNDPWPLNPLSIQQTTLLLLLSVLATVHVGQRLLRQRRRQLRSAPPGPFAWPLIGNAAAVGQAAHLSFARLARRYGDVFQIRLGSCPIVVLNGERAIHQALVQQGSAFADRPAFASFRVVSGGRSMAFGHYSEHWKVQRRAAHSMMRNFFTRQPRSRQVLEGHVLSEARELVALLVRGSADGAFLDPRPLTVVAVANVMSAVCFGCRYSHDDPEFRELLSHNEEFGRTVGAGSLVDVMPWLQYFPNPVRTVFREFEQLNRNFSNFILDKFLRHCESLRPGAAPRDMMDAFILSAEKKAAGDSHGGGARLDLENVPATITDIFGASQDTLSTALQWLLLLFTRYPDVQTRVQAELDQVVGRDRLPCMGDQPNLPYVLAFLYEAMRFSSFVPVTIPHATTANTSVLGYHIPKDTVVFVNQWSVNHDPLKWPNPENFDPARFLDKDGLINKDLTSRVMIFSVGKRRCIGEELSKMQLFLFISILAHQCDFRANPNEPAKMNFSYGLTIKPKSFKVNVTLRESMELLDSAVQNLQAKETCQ
T6 sequence (P10632 whole entry): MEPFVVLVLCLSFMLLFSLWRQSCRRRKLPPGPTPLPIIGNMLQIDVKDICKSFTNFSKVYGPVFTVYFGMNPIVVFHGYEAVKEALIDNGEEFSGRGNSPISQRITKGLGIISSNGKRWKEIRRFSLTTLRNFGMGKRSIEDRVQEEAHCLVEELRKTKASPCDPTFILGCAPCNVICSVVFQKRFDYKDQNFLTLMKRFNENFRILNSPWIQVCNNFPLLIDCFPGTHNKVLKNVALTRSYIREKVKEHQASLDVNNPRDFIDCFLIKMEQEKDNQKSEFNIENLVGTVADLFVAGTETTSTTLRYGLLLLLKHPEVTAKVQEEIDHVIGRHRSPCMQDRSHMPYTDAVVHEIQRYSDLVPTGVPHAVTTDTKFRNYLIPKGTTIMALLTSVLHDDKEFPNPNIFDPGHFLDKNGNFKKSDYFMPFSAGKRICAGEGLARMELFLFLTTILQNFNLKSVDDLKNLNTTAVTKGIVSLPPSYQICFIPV

Row | Compound | IC50 [1] | IC50 [2] | Emax at 15 min, 30 µM ([2]; human, human liver microsomes, probe SN38 (0.5 µM), SN38 glucuronidation, read-out: maximum activation of SN38 glucuronidation) | Cmax ([3]; after MIC vaginal capsule alone) | IC50 [4] | IC50 [5] | IC50 ([6]; Recombinant UGT1A8, 4-methylumbelliferone O-glucuronidation) | Emax at 45 min ([6]; human, recombinant UGT1A8, probe 4-methylumbelliferone (2 µM), glucuronidation) | IC50 [7] | IC50 ([2]; read-out: IC50) | increase in systemic exposure to DPV ([3]; concomitant use of DPV ring and MIC vaginal capsule compared to DPV ring alone) | Cmax ([3]; after DPV ring administration alone) | IC50 [8] | IC50 [6]
1 | Clc1ccc(COC(Cn2ccnc2)c2ccc(Cl)cc2Cl)c(Cl)c1 (centres unmarked) [MIC, miconazole] | 0.47 µM | Apparent activation with MIC | 607% | 7.61 ± 3.13 ng/mL | > 30 µM | > 30 µM | Apparent activation with MIC | 173% |  |  |  |  |  | 
2 | Cc1cc(C)c(Nc2ccnc(Nc3ccc(C#N)cc3)n2)c(C)c1 [DPV, Dapivirine] | 1.55 µM |  |  |  | > 30 µM | 24.2 µM |  |  | 1.41 µM | 5.2 µM | 20% | 0.462 ± 0.288 ng/mL | 17.2 µM | > 30 µM
